Results on five molecules are retold here after patent US20220289765A1, “CRYSTAL OF CARCINOGENIC FUSED KINASE INHIBITOR AND APPLICATIONS THEREOF” (Simcere Pharmaceutical Co., Ltd., priority 2019, published 2022).

Series [1] in a line: Accelerated stability test of solid. Type of series: physicochemical. The settings on record: for Purity: HPLC area purity. From the text: Samples were respectively taken at 1 month, 2 months and 3 months to test the solid chemical purity (HPLC area purity) and crystal form.
Series [2] can be described thus: Solid stability test, influence factors (high temperature, high humidity). Type of series: physicochemical. The procedure: The sample placed under a high temperature condition was sealed and left to stand in a stability test chamber at 60° C. After 10 days, the sample was taken and tested for solid purity and crystal form. The sample placed under a high humidity condition was left to stand at room temperature and 92.5% RH humidity (the mouth of the sample bottle was wrapped with a layer of sealing film and 15˜20 small holes were evenly punched in the sealing film), and the samples were taken and tested for solid purity and crystal form after 5 days/10 days, respectively.

A short description of series [3]: Pharmacokinetic test in mice. It is filed as in vivo. The settings on record: mouse, plasma; PO (10 mL/kg [sic]) vs IV 3 mg/kg, male CD-1 mice; read-out: Bioavailability F %. The procedure: The drug concentrations of the compounds in plasma at different time points were determined by LC/MS/MS method after single intravenous (IV) and intragastric (PO) administration of the compounds to 7-9 week old male CD-1 mice as the test animals. The pharmacokinetic behaviors of the compounds of the present invention in mice were studied and pharmacokinetic properties thereof were evaluated.
The compounds were prepared into clear solutions using 5% DMSO+10% solutol+85% water as a solvent for administration in IV (intravenous injection) and PO (gavage) groups. The administration dosage of each compound was 3 mg/kg for the IV group and […] for the PO group.

A short description of series [4]: Cassette pharmacokinetic test in mice (plasma, brain, CSF). It is filed as in vivo, male CD-1 mice. Here is the method:
The pharmacokinetic behaviors of the compounds of the present invention in mice were studied and the pharmacokinetic properties thereof were evaluated.

Setting [5] is: Room temperature/92.5% RH, 5 days.
Setting [6] is: Room temperature/92.5% RH, 10 days.
The mark [7] stands for this setting: PO @ 3 mpk, cassette, brain, 2 h.
Where [8] appears, read: mouse, plasma, 1 mg/kg, IV @ 1 mpk, cassette, male CD-1 mice, read-out: Apparent Distribution Volume Vd.
Setting [9] is: mouse, plasma, 1 mg/kg, IV @ 1 mpk, cassette, male CD-1 mice, read-out: Area under Curve AUC0-inf.
Setting [10] is: mouse, plasma, 1 mg/kg, IV @ 1 mpk, cassette, male CD-1 mice, read-out: Half-life T1/2 (converted).
Where [11] appears, read: mouse, plasma, 1 mg/kg, IV @ 1 mpk, cassette, male CD-1 mice, read-out: Initial Concentration C0.
Where [12] appears, read: mouse, plasma, 3 mg/kg, PO @ 3 mpk vs IV @ 1 mpk, cassette, male CD-1 mice, read-out: Bioavailability F %.
[13] abbreviates: mouse, plasma, 3 mg/kg, PO @ 3 mpk, cassette, male CD-1 mice, read-out: Area under Curve AUC0-inf.
Setting [14] is: mouse, plasma, 3 mg/kg, PO @ 3 mpk, cassette, male CD-1 mice, read-out: Peak Concentration Cmax.
Where [15] appears, read: mouse, plasma, 3 mg/kg, PO @ 3 mpk, cassette, male CD-1 mice, read-out: Time to Peak Tmax.
[16] abbreviates: male, CD-1, mouse, in vivo, iv, 1 mg/kg.
[17] abbreviates: male, CD-1, mouse, in vivo, po, 3 mg/kg.

Where two headings read alike, the source gives them in different places.

A word on the bioavailability: it is the share of a dose that reaches the circulation, judged against a reference dose that is usually intravenous. As a reminder, the Tmax is the time from dosing to the highest level.

On to `O=C1NC2(CC2)COc2ncc(F)cc2[C@H]2CCON2c2ccn3ncc1c3n2`, for which the “Relative Purity*” value turned out to be 100.0 in series [1] (40° C./75% RH, 1 month); 100.0 in series [1] (40° C./75% RH, 2 months); 100.0 in series [1] (40° C./75% RH, 3 months); 99.9 in series [1] (60° C./75% RH, 1 month); 100.0 in series [1] (60° C./75% RH, 2 months); 100.0 in series [1] (60° C./75% RH, 3 months). The Purity is 100.0 in series [1] (40° C./75% RH, 1 month); 100.0 in series [1] (40° C./75% RH, 2 months); 100.0 in series [1] (40° C./75% RH, 3 months); 99.9 in series [1] (60° C./75% RH, 1 month); 100.0 in series [1] (60° C./75% RH, 2 months); 100.0 in series [1] (60° C./75% RH, 3 months). In addition, the “Test Results Purity” value in series [2] (60° C, sealed, 10 days) stood at 100.0%; in series [2] (setting [5]) it was 100.0%; in series [2] (setting [6]), 100.0%. The “Test Results Crystal Form” value is reported as “Crystal Form C” in series [2] (60° C, sealed, 10 days, XRPD); “Crystal Form C” in series [2] (setting [5]); “Crystal Form C” in series [2] (setting [6]). Also, the “Test Results Relative Purity*” value is 100.0% in series [2] (60° C, sealed, 10 days, purity of stability sample/purity of starting sample x100%); 100.0% in series [2] (setting [5]); 100.0% in series [2] (setting [6]).
For the molecule `O=C(Nc1cnn2ccc(N3CCC[C@@H]3c3cc(F)ccc3F)nc12)N1CC[C@H](O)C1` [LOXO-101, Larotrectinib], the bioavailability in series [3] is 28%; in series [4] (setting [12]) it was 51%. Besides, the “Drug Concentration in Cerebrospinal Fluid at 0.5 h” value in series [4] (PO @ 3 mpk, cassette, CSF) turned out to be 15 nmol/kg. Further, the “Drug Concentration in Cerebrospinal Fluid at 2 h” value in series [4] (PO @ 3 mpk, cassette, CSF, 2 h) was 3 nmol/kg. In addition, the “Drug Concentration in Brain at 0.5 h” value in series [4] (PO @ 3 mpk, cassette, brain) is recorded as 40 nmol/kg. The “Drug Concentration in Brain at 2 h” value in series [4] (setting [7]) is 20 nmol/kg. Besides, in series [4] (setting [8]), the Vd is 1.57 L/kg. The AUC(0-inf) in series [4] (setting [9]) worked out at 1.72 µM·h; in series [4] (setting [13]) it was 2.72 µM·h. Also, in series [4] (setting [10]), the half-life is 72.6 min. In series [4] (setting [11]), the C0 was found to be 2380 nM. Besides, the Cmax in series [4] (setting [14]) came out at 1350 nM. Besides, the Tmax in series [4] (setting [15]) is 30 min.
`C[C@@H]1CCc2ncc(F)cc2[C@H]2CCCN2c2ccn3ncc(c3n2)C(=O)N1` [LOXO-195, reference compound]: the bioavailability in series [3] is 74%.
In series [4] (setting [16]), `CN1CCN(c2ccc(C(=O)Nc3n[nH]c4ccc(Cc5cc(F)cc(F)c5)cc34)c(NC3CCOCC3)c2)CC1` [RXDX-101, Entrectinib] gave an AUC(0-inf) of 3.77 µM·h, a C0 of 2810 nM, a Vd of 1.24 L/kg and a half-life of 116 min. In series [4] (setting [17]), the AUC(0-inf) was found to be 3.26 µM·h, the Cmax was found to be 586 nM, the Tmax is 45 min and the bioavailability worked out at 23%. Further, the “Drug Concentration in Brain at 2 h” value in series [4] (male, CD-1, mouse, in vivo, po, 3 mg/kg, 2 h) was 30 nmol/kg.
As to `C[C@H]1CNC(=O)c2cnn3ccc(nc23)N[C@H](C)c2cc(F)ccc2O1` [TPX-0005], in series [4] (PO @ 3 mpk, cassette, CSF), the “Drug Concentration in Cerebrospinal Fluid at 0.5 h” value was 8 nmol/kg. Also, the “Drug Concentration in Brain at 0.5 h” value in series [4] (PO @ 3 mpk, cassette, brain) was found to be 50 nmol/kg. Besides, the “Drug Concentration in Brain at 2 h” value in series [4] (setting [7]) came out at 41 nmol/kg. The Vd in series [4] (setting [8]) was determined as 2.63 L/kg. The AUC(0-inf) in series [4] (setting [9]) was found to be 2.86 µM·h; in series [4] (setting [13]), 5.49 µM·h. For the same molecule, the half-life in series [4] (setting [10]) is 221 min. In addition, the C0 in series [4] (setting [11]) amounted to 2250 nM. In addition, in series [4] (setting [12]), the bioavailability worked out at 64%. The Cmax in series [4] (setting [14]) came to 1540 nM. Further, the time to peak (Tmax) in series [4] (setting [15]) amounted to 45 min.
